What was measured:
Assay in all cases: electrophysiological experiments, voltage clamp of oocytes
Type in all cases: cell-based
α4β2 nAChR = α4β2 nAChR (Homo sapiens, UniProt P17787+P43681)
α7 nAChR = α7 nAChR (Homo sapiens, UniProt P36544)
α3β4 nAChR = α3β4 nAChR (Homo sapiens, UniProt P30926+P32297)
Chain of α3β4 nAChR (P32297 32-505): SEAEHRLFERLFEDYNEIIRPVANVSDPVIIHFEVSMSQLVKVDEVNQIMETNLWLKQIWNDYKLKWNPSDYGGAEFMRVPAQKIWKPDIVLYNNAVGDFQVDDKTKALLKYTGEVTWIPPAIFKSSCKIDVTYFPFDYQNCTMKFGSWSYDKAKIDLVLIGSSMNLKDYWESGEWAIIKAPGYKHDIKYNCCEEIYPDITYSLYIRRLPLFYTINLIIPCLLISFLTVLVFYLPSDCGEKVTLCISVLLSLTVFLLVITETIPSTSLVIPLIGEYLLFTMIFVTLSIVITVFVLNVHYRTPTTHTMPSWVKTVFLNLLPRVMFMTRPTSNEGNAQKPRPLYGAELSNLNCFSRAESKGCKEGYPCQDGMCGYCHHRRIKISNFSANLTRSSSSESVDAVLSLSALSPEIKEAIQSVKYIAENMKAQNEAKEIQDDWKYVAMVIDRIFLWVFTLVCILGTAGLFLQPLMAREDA
Chain of α3β4 nAChR (P30926 22-498): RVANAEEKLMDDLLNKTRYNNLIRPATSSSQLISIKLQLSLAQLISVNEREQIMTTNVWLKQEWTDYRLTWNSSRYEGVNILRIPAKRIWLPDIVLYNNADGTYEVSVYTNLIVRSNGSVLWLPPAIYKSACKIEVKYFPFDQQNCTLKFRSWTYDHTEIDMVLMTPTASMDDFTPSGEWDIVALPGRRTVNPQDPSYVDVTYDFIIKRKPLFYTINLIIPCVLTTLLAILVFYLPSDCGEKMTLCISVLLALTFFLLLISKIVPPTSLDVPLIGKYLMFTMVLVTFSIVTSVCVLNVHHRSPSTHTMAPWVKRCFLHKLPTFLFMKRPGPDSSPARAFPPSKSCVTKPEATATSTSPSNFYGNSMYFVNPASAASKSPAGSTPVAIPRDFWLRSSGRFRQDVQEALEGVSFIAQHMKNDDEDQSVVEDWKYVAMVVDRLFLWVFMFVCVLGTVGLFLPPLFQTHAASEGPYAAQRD

Chain of α7 nAChR (P36544 23-502): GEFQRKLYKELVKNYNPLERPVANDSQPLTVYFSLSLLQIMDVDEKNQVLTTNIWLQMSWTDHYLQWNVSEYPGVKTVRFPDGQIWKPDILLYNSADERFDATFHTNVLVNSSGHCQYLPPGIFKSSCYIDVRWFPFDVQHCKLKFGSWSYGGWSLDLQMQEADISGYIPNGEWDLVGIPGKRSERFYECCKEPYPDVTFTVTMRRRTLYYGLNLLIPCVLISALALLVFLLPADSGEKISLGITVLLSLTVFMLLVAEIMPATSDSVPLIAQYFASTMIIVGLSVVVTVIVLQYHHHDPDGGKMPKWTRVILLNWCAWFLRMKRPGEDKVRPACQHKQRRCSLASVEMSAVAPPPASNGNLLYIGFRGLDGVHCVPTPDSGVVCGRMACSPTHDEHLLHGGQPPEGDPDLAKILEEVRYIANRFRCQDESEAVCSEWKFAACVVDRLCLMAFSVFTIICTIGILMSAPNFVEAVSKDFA
Chain of α4β2 nAChR (P43681 29-627 limits assumed): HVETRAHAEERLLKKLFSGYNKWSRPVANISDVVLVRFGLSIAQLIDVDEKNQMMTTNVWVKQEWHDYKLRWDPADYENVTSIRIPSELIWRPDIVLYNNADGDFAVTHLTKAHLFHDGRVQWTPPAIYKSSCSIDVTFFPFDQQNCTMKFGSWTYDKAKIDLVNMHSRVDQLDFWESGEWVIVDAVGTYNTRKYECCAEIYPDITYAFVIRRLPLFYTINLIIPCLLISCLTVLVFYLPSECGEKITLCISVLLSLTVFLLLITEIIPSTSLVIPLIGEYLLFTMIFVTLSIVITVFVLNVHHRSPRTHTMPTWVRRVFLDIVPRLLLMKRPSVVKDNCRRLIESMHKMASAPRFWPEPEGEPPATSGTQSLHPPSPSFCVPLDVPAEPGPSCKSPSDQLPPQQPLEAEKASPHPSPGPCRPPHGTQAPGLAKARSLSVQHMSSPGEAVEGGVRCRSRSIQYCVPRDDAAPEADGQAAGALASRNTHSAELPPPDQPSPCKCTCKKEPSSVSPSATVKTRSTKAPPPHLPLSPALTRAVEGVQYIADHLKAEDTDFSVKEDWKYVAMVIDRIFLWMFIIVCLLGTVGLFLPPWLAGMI
Chain of α4β2 nAChR (P17787 26-502): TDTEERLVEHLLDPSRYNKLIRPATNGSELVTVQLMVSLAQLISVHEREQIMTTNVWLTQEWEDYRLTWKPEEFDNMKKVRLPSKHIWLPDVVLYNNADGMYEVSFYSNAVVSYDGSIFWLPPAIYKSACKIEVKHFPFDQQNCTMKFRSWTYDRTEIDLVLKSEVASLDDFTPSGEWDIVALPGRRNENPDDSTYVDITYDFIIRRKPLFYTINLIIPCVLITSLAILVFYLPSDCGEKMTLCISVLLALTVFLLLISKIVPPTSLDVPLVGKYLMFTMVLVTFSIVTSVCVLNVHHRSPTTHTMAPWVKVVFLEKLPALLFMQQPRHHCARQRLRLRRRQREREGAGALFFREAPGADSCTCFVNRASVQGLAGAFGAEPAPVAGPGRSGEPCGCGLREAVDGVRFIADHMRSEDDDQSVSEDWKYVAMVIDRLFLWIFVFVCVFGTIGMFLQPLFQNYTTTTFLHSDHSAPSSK

- agonist activity (α4β2 nAChR; 30 μM for α4β2, normalized to control ACh response): no significant agonist activity
- antagonist activity (α4β2 nAChR; compound at 100 μM, with ACh 30 μM): no significant antagonist activity
- agonist activity (α7 nAChR; 60 μM for α7, normalized to control ACh response): no significant agonist activity
- antagonist activity (α7 nAChR; compound at 100 μM, with ACh 60 μM): no significant antagonist activity
- agonist activity (α3β4 nAChR; 100 μM for α3β4, normalized to control ACh response): no significant agonist activity
- antagonist activity (α3β4 nAChR; compound at 100 μM, with ACh 100 μM): significantly antagonized
SMILES: CN1CCC=C(c2cnc(F)c(-c3ccccc3)c2)C1 [Compound 3a]

Reference: article PMC5592152 (Bioorganic & medicinal chemistry letters, 2017)
